The conditions of data set [1]: patients with cancer, 150 mg/day dose; 500 ng/ml is the average concentration targeted for clinical efficacy; cited from earlier work.
Data set [2] has as its system patients with advanced NSCLC following failure of at least one prior chemotherapy regimen. The data set can be described thus: Open-label predictive marker identification Phase II study of Tarceva monotherapy 150 mg/day; RECIST response and survival. Type of data set: in vivo, human. The following applies: 102 patients with evaluable microarray data. As to the method: The selection of this dose was based on pharmacokinetic parameters, as well as the safety and tolerability profile of this dose observed in Phase I, II and III trials in heavily pre-treated patients with advanced cancer. Drug levels seen in the plasma of patients with cancer receiving the 150 mg/day dose were consistently above the average plasma concentration of 500 ng/ml targeted for clinical efficacy.
This was an open-label, predictive marker identification Phase II study. The study was conducted in approximately 26 sites in about 12 countries. 264 patients with advanced NSCLC following failure of at least one prior chemotherapy regimen were enrolled over a 12 month period. […] Dose reductions were permitted based on tolerability to drug therapy. Clinical and laboratory parameters were assessed to evaluate disease control and toxicity. Treatment continued until disease progression, unacceptable toxicity or death. The study design is depicted in FIG. 1.
The RECIST (Uni-dimensional Tumour Measurement) criteria were used to evaluate response. These criteria can be found under the following link: […]
A regular status check every 3 months was performed either by a patient's visit to the clinic or by telephone. All deaths were recorded. […]

The test system of data set [3] is NSCLC patients for whom standard therapy for advanced disease has failed. Conditions: single agent versus placebo, BR.21; cited from earlier work.

Consider `C#Cc1cccc(Nc2ncnc3cc(OCCOC)c(OCCOC)cc23)c1` [Erlotinib, erlotinib], for which, in data set [1], the “Drug levels in plasma” value was more than 500 ng/mL. In data set [2], the “Best Response PD” value is “(48.0%)” and the “Best Response PR” value is listed as “(5.9%)”. Moreover, the “survival of NSCLC patients” value in data set [3] is “significantly prolongs and improves the survival”.

The values above are taken from US20110190321A1, “[…] FOR EGFR INHIBITOR TREATMENT” (priority 2007, published 2011).
